# Columns and labels:
# [1] = Plasma protein binding in human; assay type: ADME, cell-free; settings: read-out: PPB (converted)
# [2] = Plasma protein binding in Wistar rat; assay type: ADME, cell-free; settings: read-out: PPB (converted)
# [3] = target: Transient receptor potential cation channel subfamily V member 1 (Homo sapiens, UniProt Q8NER1)
# Description: Antagonist activity at human TRPV1 expressed in CHO cells assessed as inhibition of calcium flux by FLIPR assay
# [4] = Intrinsic clearance in rat liver microsomes; assay type: ADME, Microsome
# [5] = Intrinsic clearance in human liver microsomes; assay type: ADME, Microsome
# [6] = physchem; settings: phosphate buffered saline, pH 7.4
# Description: Intrinsic solubility of the compound in phosphate buffered saline at pH 7.4 by shake-flask method
# [7] = AUClast in po dosed rat; assay type: ADME, organism-based; design: route oral, time 0 - last; settings: plasma
# [8] = Intrinsic clearance in rat hepatocytes assessed per 10^6 cells; assay type: ADME, cell-based, Liver, Hepatocyte
# [9] = test system: Rattus norvegicus; experiment: Antihyperalgesic activity in po dosed rat capsaicin hargreaves model assessed as reversal of capsaicin-induced thermal hyperalgesia measured by paw withdrawal latency administered 2 hrs before capsaicin challenge; assay type: functional
# [10] = Intrinsic clearance in human hepatocytes assessed per 10^6 cells; assay type: ADME, cell-based, Liver, Hepatocyte
# Chain of Transient receptor potential cation channel subfamily V member 1 (Q8NER1 whole entry): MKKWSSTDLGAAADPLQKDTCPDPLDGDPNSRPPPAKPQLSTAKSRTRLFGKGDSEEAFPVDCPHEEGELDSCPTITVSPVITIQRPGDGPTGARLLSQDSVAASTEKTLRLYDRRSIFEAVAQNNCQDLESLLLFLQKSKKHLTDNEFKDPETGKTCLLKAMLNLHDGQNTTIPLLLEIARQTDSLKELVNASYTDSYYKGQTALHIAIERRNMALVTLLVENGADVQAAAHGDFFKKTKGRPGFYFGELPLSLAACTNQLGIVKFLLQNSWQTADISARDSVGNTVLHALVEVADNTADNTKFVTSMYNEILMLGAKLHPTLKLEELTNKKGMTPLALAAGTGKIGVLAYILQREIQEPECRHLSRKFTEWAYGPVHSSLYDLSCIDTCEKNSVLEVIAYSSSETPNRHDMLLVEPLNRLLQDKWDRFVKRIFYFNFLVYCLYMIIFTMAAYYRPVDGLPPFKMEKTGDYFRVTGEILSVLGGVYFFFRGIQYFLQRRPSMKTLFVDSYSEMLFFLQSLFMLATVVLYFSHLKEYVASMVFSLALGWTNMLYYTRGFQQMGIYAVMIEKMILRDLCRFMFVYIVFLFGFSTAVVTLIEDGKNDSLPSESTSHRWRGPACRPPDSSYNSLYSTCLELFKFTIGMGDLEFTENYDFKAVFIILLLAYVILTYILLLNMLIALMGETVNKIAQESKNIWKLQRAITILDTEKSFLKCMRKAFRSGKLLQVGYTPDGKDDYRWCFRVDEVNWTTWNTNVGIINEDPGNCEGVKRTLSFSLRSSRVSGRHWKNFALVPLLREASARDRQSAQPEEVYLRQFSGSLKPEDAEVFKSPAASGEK
Structure (SMILES),IC50 [3],solubility thermodynamic [6],other results
CC(C)NCc1c(C(=O)N[C@@H]2CCC[C@H](O)C2)noc1-c1ccc(C(F)(F)F)cc1,,,AUC(0-t) [7]: 2730 ng·h/mL; hepatocyte CLint [8]: < 6 µL/min/1e6 cells; MED [9]: 30 µmol/kg; hepatocyte CLint [10]: < 6 µL/min/1e6 cells
CCOc1cc(Cl)ccc1-c1onc(C(=O)NC2CCC(O)CC2)c1C (stereo not drawn),200 nM,28 µg/mL,
O=C(N[C@@H]1CCC[C@H](O)C1)c1onc(-c2ccc(F)cc2)c1Cl,794 nM,47 µg/mL,
O=C(N[C@@H]1CCC[C@H](O)C1)c1noc(-c2ccc(C(F)(F)F)cc2)c1CO,79.4 nM,73 µg/mL,fraction unbound [1]: 0.081; fraction unbound [2]: 0.091; microsomal CLint [4]: 27 µL/min/mg; microsomal CLint [5]: < 12 µL/min/mg
O=C(NC1CCC(O)CC1)c1noc(-c2ccc(C(F)(F)F)cc2)c1CO (stereo not drawn),1580 nM,70 µg/mL,
CC[C@H](CO)NC(=O)c1noc(-c2ccc(C(F)(F)F)cc2)c1CO,1580 nM,66 µg/mL,
O=C(NC1CCOCC1)c1noc(-c2ccc(C(F)(F)F)cc2)c1CO,3160 nM,35 µg/mL,
CC(C)[C@H](C)NC(=O)c1noc(-c2ccc(C(F)(F)F)cc2)c1CO,126 nM,1.5 µg/mL,
O=C(NC1CCCC1)c1noc(-c2ccc(C(F)(F)F)cc2)c1CO,158 nM,1 µg/mL,
CC(O)c1c(C(=O)NC2CCCC2)noc1-c1ccc(C(F)(F)F)cc1 (stereo not drawn),1000 nM,< 1 µg/mL,
CC(C)(O)c1c(C(=O)NC2CCCC2)noc1-c1ccc(C(F)(F)F)cc1,5010 nM,< 1 µg/mL,
CC[C@H](CO)NC(=O)c1noc(-c2ccc(C(F)(F)F)c(F)c2)c1CO,158 nM,31 µg/mL,
CCNC(=O)c1c(C(=O)NC2CCCC2)noc1-c1ccc(C(F)(F)F)cc1,5010 nM,1.6 µg/mL,
CN(C)C(=O)c1c(C(=O)NC2CCCC2)noc1-c1ccc(C(F)(F)F)cc1,2000 nM,< 1 µg/mL,
O=C(NC1CCCC1)c1noc(-c2ccc(C(F)(F)F)cc2)c1C(=O)O,1580 nM,72 µg/mL,
CC(C)NCc1c(C(=O)N[C@@H](C)C(C)C)noc1-c1ccc(C(F)(F)F)cc1,63.1 nM,4 µg/mL,
CC(C)NCc1c(C(=O)NC2CCCC2)noc1-c1ccc(C(F)(F)F)cc1,316 nM,13 µg/mL,
CC(C)NCc1c(C(=O)N[C@H](C)C(C)C)noc1-c1ccc(C(F)(F)F)cc1,794 nM,12 µg/mL,

# Further lines, with some results ahead:
IC50 [3],solubility thermodynamic [6],Structure (SMILES),other results
0.501 nM,< 1 µg/mL,O=C(N[C@@H]1CCC[C@H](O)C1)c1noc(-c2ccc(C(F)(F)F)cc2)c1Cl,fraction unbound [1]: 0.01; fraction unbound [2]: 0.007; microsomal CLint [4]: < 12 µL/min/mg; microsomal CLint [5]: < 12 µL/min/mg
50.1 nM,38 µg/mL,O=C(N[C@@H]1CCC[C@H](O)C1)c1noc(-c2ccc(F)cc2)c1Cl,
0.631 nM,< 1 µg/mL,O=C(N[C@@H]1CCC[C@H](O)C1)c1noc(-c2ccc(C(F)(F)F)c(F)c2)c1Cl,
5.01 nM,3 µg/mL,O=C(N[C@@H]1CCC[C@H](O)C1)c1noc(-c2ccc(Cl)cc2)c1Cl,
0.631 nM,2 µg/mL,O=C(N[C@@H]1CCC[C@H](O)C1)c1noc(-c2ccc(Cl)c(F)c2)c1Cl,
2 nM,4 µg/mL,Cc1c(C(=O)N[C@@H]2CCC[C@H](O)C2)noc1-c1ccc(C(F)(F)F)c(F)c1,
12.6 nM,27 µg/mL,CCOc1cc(Cl)ccc1-c1onc(C(=O)N[C@@H]2CCC[C@H](O)C2)c1C,
12.6 nM,< 1 µg/mL,CCOc1cc(Cl)ccc1-c1onc(C(=O)NC2CCOCC2)c1C,
3.16 nM,11 µg/mL,O=C(N[C@@H]1CCC[C@H](O)C1)c1onc(-c2ccc(Cl)c(F)c2)c1Cl,
20 nM,1.4 µg/mL,CC(C)[C@H](C)NC(=O)c1noc(-c2ccc(C(F)(F)F)c(F)c2)c1CO,
39.8 nM,73 µg/mL,O=C(NC1CCCC1)c1noc(-c2ccc(C(F)(F)F)c(F)c2)c1CO,
